# Source: patent US10519177B2, “Heterocyclic compounds and uses thereof” (Plexxikon Inc., priority 2013, dated 2019)
# Read-outs that look alike come from different tables or passages of the source.
# Key:
# [1] = target: BRD4-BD12 (1-477) (Homo sapiens (Human), UniProt O60885); test: Alphascreen binding assay BRD4-BD12; conditions: BRD4(1 2) H4; read-out: Biochemical activity (IC50 μM) BRD4(1 2) H4
# In short: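 In this competition format, compounds displace a biotinylated tetra-acetyl H4 peptide from E. coli-expressed human BRD4 bromodomain constructs captured on nickel chelate beads. The reaction runs at pH 7.5 with 2 mM DTT and detergent for 1 h at room temperature before a 30 min bead step.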
# [2] = system: bromodomain; test: at least one of the bromodomain cell assays of Example 57; format: cell-based; conditions: at least one of the bromodomain cell assays described in Example 57; read-out: IC50 in at least one of the bromodomain cell assays
# [3] = system: MV-4-11 cells; test: Oncology cell growth assay MV-4-11 (CellTiter Glo); format: cell-based; conditions: Homo sapiens, MV4-11, 72 h, read-out: Cell activity (IC50 μM) MV-4-11 3d-Growth
# In short: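 Growth read by CellTiter Glo luminescence after 72 h compound treatment of MLL-AF4-bearing MV-4-11 cells (3000/well). Titration: 8 points, 1:3 steps, maximum 10 μM, 0.2% DMSO final. Data normalized to DMSO wells, four-parameter fit gives pIC50.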
Structure (SMILES),IC50 [1] [µM],IC50 [2] [nM],"IC50 ([3]; MV-4-11, 3d growth) [µM]",IC50 [3] [µM]
"Nc1ncc(-c2cnc3c(-c4cnn(CC(F)(F)F)c4)cn(CC4CCC(F)(F)CC4)c3c2)cn1 [P-0451, 5-[1-[(4,4-difluorocyclohexyl)methyl]-3-[1-(2,2,2-trifluoroethyl)pyrazol-4-yl]pyrrolo[3,2-b]pyridin-6-yl]pyrimidin-2-amine]",1 to 10,< 10000,10 to 200,–
"COC(=O)c1ccc(-c2cn(CC3(F)CCCCC3)c3cc(-c4c(C)noc4C)cnc23)cn1 [P-0453, methyl 5-[6-(3,5-dimethylisoxazol-4-yl)-1-[(1-fluorocyclohexyl)methyl]pyrrolo[3,2-b]pyridin-3-yl]pyridine-2-carboxylate]",< 1,< 10000,< 1,–
"Cc1noc(C)c1-c1cnc2c(-c3ccc(N)nc3)cn(CC3(F)CCCCC3)c2c1 [P-0520, 5-[6-(3,5-dimethylisoxazol-4-yl)-1-[(1-fluorocyclohexyl)methyl]pyrrolo[3,2-b]pyridin-3-yl]pyridin-2-amine]",< 1,< 10000,< 1,–
"CCn1cc(-c2cnc3ccn(CC4CCC(F)(F)CC4)c3c2)ccc1=O [P-0517, 5-[1-[(4,4-difluorocyclohexyl)methyl]pyrrolo[3,2-b]pyridin-6-yl]-1-ethyl-pyridin-2-one]",1 to 10,< 10000,1 to 10,–
"Cc1noc(C)c1-c1cnc2c(-c3ccc(CC(=O)O)cc3)cn(CC3CCCCCC3)c2c1 [P-0587, 2-[4-[1-(cycloheptylmethyl)-6-(3,5-dimethylisoxazol-4-yl)pyrrolo[3,2-b]pyridin-3-yl]phenyl]acetic acid]",< 1,< 10000,< 1,–
"Cc1ccc(-c2cn(CC3(C)CCOCC3)c3cc(-c4c(C)noc4C)cnc23)cc1 [P-0794, 3,5-dimethyl-4-[1-[(4-methyltetrahydropyran-4-yl)methyl]-3-(p-tolyl)pyrrolo[3,2-b]pyridin-6-yl]isoxazole]",< 1,< 10000,1 to 10,–
"Cc1noc(C)c1-c1cnc2c(-c3cnn(CC(F)(F)F)c3)cn(CC3(F)CC=C(F)CC3)c2c1 (stereo not drawn) [P-0356, 4-[1-[(1,4-difluorocyclohex-3-en-1-yl)methyl]-3-[1-(2,2,2-trifluoroethyl)pyrazol-4-yl]pyrrolo[3,2-b]pyridin-6-yl]-3,5-dimethyl-isoxazole]",< 1,< 10000,–,< 1
"Cc1noc(C)c1-c1cnc2c(-c3ccc(C(N)=O)cc3)cn(CC3(F)CCCCC3)c2c1 [P-0466, 4-[6-(3,5-dimethylisoxazol-4-yl)-1-[(1-fluorocyclohexyl)methyl]pyrrolo[3,2-b]pyridin-3-yl]benzamide]",< 1,< 10000,< 1,–
"Cc1noc(C)c1-c1cnc2c(-c3ccc(C(=O)O)cc3)cn(Cc3ccccn3)c2c1 [P-0431, 4-[6-(3,5-dimethylisoxazol-4-yl)-1-(2-pyridylmethyl)pyrrolo[3,2-b]pyridin-3-yl]benzoic acid]",< 1,< 10000,< 1,–
"Cc1noc(C)c1-c1cnc2c(-c3ccc(C#N)nc3)cn([C@@H](C)c3ccccn3)c2c1 [P-0595, 5-[6-(3,5-dimethylisoxazol-4-yl)-1-[(1S)-1-(2-pyridyl)ethyl]pyrrolo[3,2-b]pyridin-3-yl]pyridine-2-carbonitrile]",< 1,< 10000,< 1,–
"Cc1noc(C)c1-c1cnc2c(-c3ccc(C(=O)O)cc3)cn(CC3CCC4(CC3)CC4)c2c1 [P-0582, 4-[6-(3,5-dimethylisoxazol-4-yl)-1-(spiro[2.5]octan-6-ylmethyl)pyrrolo[3,2-b]pyridin-3-yl]benzoic acid]",< 1,< 10000,< 1,–
"Cc1noc(C)c1-c1cnc2c(-c3ccc(C(=O)NC4CC4)nc3)cn([C@@H](C)c3ccccn3)c2c1 [P-0543, N-cyclopropyl-5-[6-(3,5-dimethylisoxazol-4-yl)-1-[(1S)-1-(2-pyridyl)ethyl]pyrrolo[3,2-b]pyridin-3-yl]pyridine-2-carboxamide]",< 1,< 10000,< 1,–
"COC(=O)CCc1ccc(-c2cn(CC3CCC(F)(F)CC3)c3cc(-c4c(C)noc4C)cnc23)cc1 [P-0529, methyl 3-[4-[1-[(4,4-difluorocyclohexyl)methyl]-6-(3,5-dimethylisoxazol-4-yl)pyrrolo[3,2-b]pyridin-3-yl]phenyl]propanoate]",< 1,< 10000,< 1,–
"COc1ccc(-c2cn(CC3(F)CCCCC3)c3cc(-c4c(C)noc4C)cnc23)cn1 [P-0470, 4-[1-[(1-fluorocyclohexyl)methyl]-3-(6-methoxy-3-pyridyl)pyrrolo[3,2-b]pyridin-6-yl]-3,5-dimethyl-isoxazole]",< 1,< 10000,< 1,–
"Cc1noc(C)c1-c1cnc2c(I)cn(Cc3cccnn3)c2c1 [P-0528, 4-[3-iodo-1-(pyridazin-3-ylmethyl)pyrrolo[3,2-b]pyridin-6-yl]-3,5-dimethyl-isoxazole]",< 1,< 10000,< 1,–
"Cc1noc(C)c1-c1cnc2c(-c3cnn(C(F)F)c3)cn([C@H](C)c3ccccn3)c2c1 [P-0515, 4-[3-[1-(difluoromethyl)pyrazol-4-yl]-1-[(1R)-1-(2-pyridyl)ethyl]pyrrolo[3,2-b]pyridin-6-yl]-3,5-dimethyl-isoxazole]",< 1,< 10000,< 1,–
"CNS(=O)(=O)c1ccc(-c2cn(CC3(F)CCCCC3)c3cc(-c4c(C)noc4C)cnc23)cc1 [P-0378, 4-[6-(3,5-dimethylisoxazol-4-yl)-1-[(1-fluorocyclohexyl)methyl]pyrrolo[3,2-b]pyridin-3-yl]-N-methyl-benzenesulfonamide]",< 1,< 10000,–,< 1
"Cc1noc(C)c1-c1cnc2c(-c3ccc(NC(=O)NC4CC4)cc3)cn(CC3CCC(F)(F)CC3)c2c1 [P-0562, 1-cyclopropyl-3-[4-[1-[(4,4-difluorocyclohexyl)methyl]-6-(3,5-dimethylisoxazol-4-yl)pyrrolo[3,2-b]pyridin-3-yl]phenyl]urea]",< 1,< 10000,< 1,–
"Cc1noc(C)c1-c1cnc2c(-c3ccc(C(=O)O)c(F)c3F)cn(CC3(F)CCCCC3)c2c1 [P-0476, 4-[6-(3,5-dimethylisoxazol-4-yl)-1-[(1-fluorocyclohexyl)methyl]pyrrolo[3,2-b]pyridin-3-yl]-2,3-difluoro-benzoic acid]",< 1,< 10000,< 1,–
"Cc1noc(C)c1-c1cnc2c(-c3ccc(C4(C#N)CC4)cc3)cn(CC3CCC(F)(F)CC3)c2c1 [P-0507, 1-[4-[1-[(4,4-difluorocyclohexyl)methyl]-6-(3,5-dimethylisoxazol-4-yl)pyrrolo[3,2-b]pyridin-3-yl]phenyl]cyclopropanecarbonitrile]",< 1,< 10000,< 1,–
"Cc1nnc(C)n1-c1cnc2c(-c3ccc(C(=O)O)cc3)cn(CC3CCC(F)(F)CC3)c2c1 [P-0420, 4-[1-[(4,4-difluorocyclohexyl)methyl]-6-(3,5-dimethyl-1,2,4-triazol-4-yl)pyrrolo[3,2-b]pyridin-3-yl]benzoic acid]",< 1,< 10000,–,10 to 200
"Cc1noc(C)c1-c1cnc2c(-c3cn(C)nc3C(F)(F)F)cn(CC3CCC(F)(F)CC3)c2c1 [P-0410, 4-[1-[(4,4-difluorocyclohexyl)methyl]-3-[1-methyl-3-(trifluoromethyl)pyrazol-4-yl]pyrrolo[3,2-b]pyridin-6-yl]-3,5-dimethyl-isoxazole]",< 1,< 10000,–,< 1
"Cc1noc(C)c1-c1cnc2c(-c3cnn(CC(F)(F)F)c3)cn([C@@H](C)c3ccc(F)cc3)c2c1 [P-0354, 4-[1-[(1S)-1-(4-fluorophenyl)ethyl]-3-(1-(2,2,2-trifluoroethyl)pyrazol-4-yl]pyrrolo(3,2-b)pyridin-6-yl]-3,5-dimethyl-isoxazole]",< 1,< 10000,–,< 1
"Cc1nn(C)cc1-c1cn(CC2CCC(F)(F)CC2)c2cc(-c3c(C)noc3C)cnc12 [P-0395, 4-[1-[(4,4-difluorocyclohexyl)methyl]-3-(1,3-dimethylpyrazol-4-yl)pyrrolo[3,2-b]pyridin-6-yl]-3,5-dimethyl-isoxazole]",< 1,< 10000,–,< 1
"Cc1noc(C)c1-c1cnc2c(-c3ccc(C(C)(C)C(=O)O)cc3)cn(CC3(C)CCOCC3)c2c1 [P-0778, 2-[4-[6-(3,5-dimethylisoxazol-4-yl)-1-[(4-methyltetrahydropyran-4-yl)methyl]pyrrolo[3,2-b]pyridin-3-yl]phenyl]-2-methyl-propanoic acid]",< 1,< 10000,1 to 10,–
"CCNS(=O)(=O)c1ccc(-c2cn([C@@H](C)c3ccccn3)c3cc(-c4c(C)noc4C)cnc23)cc1 [P-0556, 4-[6-(3,5-dimethylisoxazol-4-yl)-1-[(1S)-1-(2-pyridyl)ethyl]pyrrolo[3,2-b]pyridin-3-yl]-N-ethyl-benzenesulfonamide]",< 1,< 10000,< 1,–
"Cc1noc(C)c1-c1cnc2c(-c3cnn(C(F)F)c3)cn(Cc3ncccn3)c2c1 [P-0350, 4-[3-[1-(difluoromethyl)pyrazol-4-yl]-1-(pyrimidin-2-ylmethyl)pyrrolo[3,2-b]pyridin-6-yl]-3,5-dimethyl-isoxazole]",< 1,< 10000,–,< 1
